In article PMC6934184, “Selective DNA-PKcs inhibition extends the therapeutic index of localized radiotherapy and chemotherapy” (The Journal of Clinical Investigation, 2019):

Biological target: T1, PIK3CB/PIK3R1 (p110β/p85α) (Homo sapiens, UniProt P42338)
T1 construct: purchased Thermo Fisher Scientific (Life Technologies) SelectScreen
Experiment: SelectScreen Adapta
Format: biochemical
In short: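 NU5455 was profiled across the SelectScreen Broad panel of kinase activity and binding assays. Z'LYTE reactions such as CSF1R ran at apparent Km ATP, while the Adapta CAMK1 assay used ATP listed as 10. Values are given as percent.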

T1 sequence (P42338 whole entry): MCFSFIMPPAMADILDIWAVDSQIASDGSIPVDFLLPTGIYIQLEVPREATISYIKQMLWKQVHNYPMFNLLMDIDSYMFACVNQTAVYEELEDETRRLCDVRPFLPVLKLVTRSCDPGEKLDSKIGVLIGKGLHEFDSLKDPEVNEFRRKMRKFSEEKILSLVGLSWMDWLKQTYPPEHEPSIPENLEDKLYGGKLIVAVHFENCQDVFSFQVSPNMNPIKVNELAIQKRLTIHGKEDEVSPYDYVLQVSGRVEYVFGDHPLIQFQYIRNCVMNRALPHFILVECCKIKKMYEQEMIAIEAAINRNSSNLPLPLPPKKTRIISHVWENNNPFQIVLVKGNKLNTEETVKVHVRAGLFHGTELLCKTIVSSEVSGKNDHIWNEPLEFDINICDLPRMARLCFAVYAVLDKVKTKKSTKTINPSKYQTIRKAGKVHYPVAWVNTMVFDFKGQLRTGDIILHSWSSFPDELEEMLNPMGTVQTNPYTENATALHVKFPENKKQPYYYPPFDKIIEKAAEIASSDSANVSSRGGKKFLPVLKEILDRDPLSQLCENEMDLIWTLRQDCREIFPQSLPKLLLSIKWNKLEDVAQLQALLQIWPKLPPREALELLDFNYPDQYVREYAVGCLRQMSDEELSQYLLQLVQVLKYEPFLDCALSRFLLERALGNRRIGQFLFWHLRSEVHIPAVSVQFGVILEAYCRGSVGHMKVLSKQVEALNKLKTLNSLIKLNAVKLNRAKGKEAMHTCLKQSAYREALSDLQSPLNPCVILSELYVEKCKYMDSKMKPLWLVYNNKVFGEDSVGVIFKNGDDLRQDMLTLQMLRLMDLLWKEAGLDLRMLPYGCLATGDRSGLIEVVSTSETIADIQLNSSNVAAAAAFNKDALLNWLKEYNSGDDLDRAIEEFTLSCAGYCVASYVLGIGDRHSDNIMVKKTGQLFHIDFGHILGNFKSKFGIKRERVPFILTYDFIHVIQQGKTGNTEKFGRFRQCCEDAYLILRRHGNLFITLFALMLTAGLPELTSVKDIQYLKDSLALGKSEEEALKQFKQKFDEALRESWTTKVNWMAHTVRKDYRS
T1 sequence (P27986 whole entry partner): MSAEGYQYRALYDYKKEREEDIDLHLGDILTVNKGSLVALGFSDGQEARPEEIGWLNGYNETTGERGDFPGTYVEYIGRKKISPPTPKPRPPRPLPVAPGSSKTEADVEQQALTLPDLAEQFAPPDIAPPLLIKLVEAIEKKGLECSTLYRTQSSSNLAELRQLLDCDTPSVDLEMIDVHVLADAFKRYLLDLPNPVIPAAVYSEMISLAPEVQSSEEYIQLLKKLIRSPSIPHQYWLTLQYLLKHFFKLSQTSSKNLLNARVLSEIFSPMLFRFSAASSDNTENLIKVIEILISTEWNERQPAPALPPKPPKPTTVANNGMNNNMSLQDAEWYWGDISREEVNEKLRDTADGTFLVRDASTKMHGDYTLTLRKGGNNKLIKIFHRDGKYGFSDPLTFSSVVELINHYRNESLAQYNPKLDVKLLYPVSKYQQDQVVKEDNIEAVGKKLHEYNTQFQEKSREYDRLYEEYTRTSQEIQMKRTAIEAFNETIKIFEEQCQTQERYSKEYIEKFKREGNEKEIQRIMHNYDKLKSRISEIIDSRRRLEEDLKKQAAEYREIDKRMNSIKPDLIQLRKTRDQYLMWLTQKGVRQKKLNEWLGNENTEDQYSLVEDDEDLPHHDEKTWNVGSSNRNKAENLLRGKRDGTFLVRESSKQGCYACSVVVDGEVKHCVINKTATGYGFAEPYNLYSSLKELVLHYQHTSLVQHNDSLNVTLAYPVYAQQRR

In the case of `CN(C(=O)CN1CCOCC1)c1ccc2sc3c(-c4cccc5c(=O)cc(N6CC7CCC(C6)O7)oc45)cccc3c2c1` [NU5455], the inhibition at 1 µM is reported as -3.8%.
